In US20200207989A1, “FLUORESCENT PROBE FOR ALDH3A1 DETECTION” (The University of Tokyo, priority 2016, published 2020):

T1: ALDH1A1 (Homo sapiens, UniProt P00352)
T1 construct: purchased
T1 sequence (P00352 1-501): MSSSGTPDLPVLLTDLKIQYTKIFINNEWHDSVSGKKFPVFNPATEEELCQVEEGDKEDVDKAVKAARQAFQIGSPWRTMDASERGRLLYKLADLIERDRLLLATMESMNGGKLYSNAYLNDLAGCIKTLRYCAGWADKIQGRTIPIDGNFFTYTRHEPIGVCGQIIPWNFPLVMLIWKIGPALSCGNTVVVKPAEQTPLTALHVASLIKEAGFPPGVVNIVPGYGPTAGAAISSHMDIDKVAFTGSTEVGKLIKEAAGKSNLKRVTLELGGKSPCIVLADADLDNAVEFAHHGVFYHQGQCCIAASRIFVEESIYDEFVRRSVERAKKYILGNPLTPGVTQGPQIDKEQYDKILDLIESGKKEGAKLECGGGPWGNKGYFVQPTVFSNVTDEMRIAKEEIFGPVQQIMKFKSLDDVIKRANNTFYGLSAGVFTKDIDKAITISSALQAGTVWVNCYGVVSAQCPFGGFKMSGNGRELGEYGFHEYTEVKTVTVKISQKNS

T2: ALDH3A1 (Homo sapiens, UniProt P30838)
T2 construct: purchased
T2 sequence (P30838 1-453): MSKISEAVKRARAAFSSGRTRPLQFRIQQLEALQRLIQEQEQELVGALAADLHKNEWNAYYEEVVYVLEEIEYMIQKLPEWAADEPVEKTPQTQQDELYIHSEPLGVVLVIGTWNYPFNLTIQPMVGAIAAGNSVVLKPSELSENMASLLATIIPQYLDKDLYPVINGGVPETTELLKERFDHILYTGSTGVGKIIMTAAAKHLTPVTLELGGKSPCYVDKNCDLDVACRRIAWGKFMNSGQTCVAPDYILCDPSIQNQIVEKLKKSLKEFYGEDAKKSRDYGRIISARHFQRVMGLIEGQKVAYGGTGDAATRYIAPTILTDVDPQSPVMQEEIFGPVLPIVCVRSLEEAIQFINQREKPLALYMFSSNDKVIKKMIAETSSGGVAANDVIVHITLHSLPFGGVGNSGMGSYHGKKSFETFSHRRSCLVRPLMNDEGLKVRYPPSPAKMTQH

T3: ALDH1A3 (Homo sapiens, UniProt P47895)
T3 construct: purchased
T3 sequence (P47895 1-512): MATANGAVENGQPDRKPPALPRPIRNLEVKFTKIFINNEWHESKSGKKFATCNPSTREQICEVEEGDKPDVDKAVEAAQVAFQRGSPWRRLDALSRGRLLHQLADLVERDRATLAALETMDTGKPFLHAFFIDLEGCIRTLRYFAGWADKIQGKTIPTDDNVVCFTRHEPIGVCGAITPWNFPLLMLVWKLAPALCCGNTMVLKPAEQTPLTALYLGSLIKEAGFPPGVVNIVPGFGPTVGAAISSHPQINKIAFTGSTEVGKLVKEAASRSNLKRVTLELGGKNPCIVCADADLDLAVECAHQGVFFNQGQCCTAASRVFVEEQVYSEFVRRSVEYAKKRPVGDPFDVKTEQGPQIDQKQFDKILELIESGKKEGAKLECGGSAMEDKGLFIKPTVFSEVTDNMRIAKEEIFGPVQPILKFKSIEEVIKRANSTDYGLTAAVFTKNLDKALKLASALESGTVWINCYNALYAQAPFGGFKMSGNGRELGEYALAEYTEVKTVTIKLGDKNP


Legend:
ALDH1A1 [1] = target: T1, ALDH1A1; experiment: Kinetic characteristics (Michaelis-Menten Km, Kcat) with ALDH1A1; format: biochemical; conditions: five minutes at 37° C., Tris buffer pH 7.5
Procedure: (§1) Human recombinant ALDH1A1/1A3/3A1 was purchased, and 100 mM of KCL, 2 mM of DTT, 1 mM of NAD(P), 10-100 nM of each ALDH, and 10-80 μM of each compound were mixed in Tris buffer (100 mM, pH 7.5), reacted for 30 minutes at 37° C., an equal amount of acetonitrile added, and the reaction stopped. The reaction solution was analyzed by UPLC/MS/MS (Waters). The UPCL chromatogram was carried out over five minutes at a flow rate of 800 μL/min by a linear gradient from 5% acetonitrile 0.01 M ammonium formate/water to 95% acetonitrile 0.01 M ammonium formate/water. An aldehyde-form and carboxylic acid-form probe were detected by the absorbance at a wavelength of 504 nm, and m/z of the MS spectrum at each peak was confirmed to agree with the expected m/z.
(§2) For the reaction, 100 mM of KCL, 2 mM of DTT, 1 mM of NAD(P), and five to six concentrations within the range of 10-100 nM of each ALDH and 0.1-80 μM of each probe were selected, mixed in Tris buffer (100 mM, pH 7.5), and reacted for five minutes at 37° C.; an equal amount of acetonitrile was added, and the reaction was stopped. Detection of the aldehyde-form/carboxylic acid-form probes was carried out using the same method as described above by UPLC/MS/MS. Km and Kcat were calculated by fitting the reaction rate at each probe concentration obtained to the Michaelis-Menten equation. A Kaleida Graph ver. 4.1 (Hulinks, Inc.) was used in fitting.

ALDH1A1 [2] = target: T1, ALDH1A1; experiment: Reactivity of probes to recombinant ALDH1A1 (UPLC/MS/MS detection of aldehyde and carboxylic acid forms); format: biochemical; conditions: 10-100 nM ALDH, 10-80 μM compound, Tris buffer pH 7.5, 30 minutes at 37° C., ◯/X not defined by a legend
Procedure: as §1

ALDH3A1 [3] = target: T2, ALDH3A1; experiment: Kinetic characteristics (Michaelis-Menten Km, Kcat) with ALDH3A1; format: biochemical
Procedure: as §1, §2
The Kcat ratio (Kcat of ALDH3A1/Kcat of ALDH1A1) was calculated for probe 1, probe 3, and probe 5 as an indicator of ALDH1A1/ALDH3A1 specificity because the probe reaction rate at the actual probe use concentration is believed to be close to Vmax since Km is relatively small (Table 5).

ALDH3A1 [4] = target: T2, ALDH3A1; experiment: Reactivity of probes to recombinant ALDH3A1 (UPLC/MS/MS); format: biochemical; conditions: 10-100 nM ALDH, 10-80 μM compound, Tris buffer pH 7.5, 30 minutes at 37° C., ◯/X not defined by a legend
Procedure: as §1, with “formate/water.” for “formate/water. An aldehyde-form and carboxylic acid-form probe were detected by the absorbance at a wavelength of 504 nm, and m/z of the MS spectrum at each peak was confirmed to agree with the expected m/z.”

[5] = HPLC (LC/MS) retention time as measure of hydrophilicity / membrane permeability; format: physicochemical; conditions: C18 column; 20% B 2.5 min, 20%-->100% B 5 min, 500 μL/min; neutral conditions; mean±SD of three tests
Procedure: In the present invention, it is preferable to use the retention time on an HPLC chromatogram as the measure of hydrophilicity.
HPLC conditions: taking solvent A to be 0.01 M ammonium formate/water and solvent B to be 80% acetonitrile 0.01 M ammonium formate/water, chromatography is carried out under conditions of 20% solvent B for 2.5 minutes followed by a 5-minute linear gradient of solvent B from 20% to 100% (flow rate 500 μL/min).
A C18 column (HP 3 μm, inner diameter: 2.1 mm, length: 150 mm, GL Science), for example, can be used suitably as the column.
The water solubility was verified by LC/MS under neutral conditions to compare the membrane permeability of the five probes produced above and ALDEFLUOR. The reaction was stopped after advancing the reaction to the point that each probe was present as both a carboxylic acid form and an aldehyde form using a suitable isoform and concentration of ALDH, and analysis was conducted by LC/MS (Agilent 1200/6130 quadrupole LC/MS system). A C18 column (HP 3 μm, inner diameter: 2.1 mm, length: 150 mm, GL Science) was used as the column. HPLC chromatograms were carried out by 20% B for 2.5 minutes followed by a five-minute linear gradient (flow rate: 500 μL/min) from 20% to 100% B, taking solvent A to be 0.01 M ammonium formate/water and solvent B to be 80% acetonitrile 0.01 M ammonium formate/water. The probe containing BODIPY was detected by the absorbance at a wavelength of 504 nm and the probe containing TG at a wavelength of 495 nm, and m/z of the MS spectrum at each peak was confirmed to agree with the expected m/z. Three independent tests were run, and the mean±SD was calculated. […] Given that imaging of probe 1 was not successful, there was thought to be a threshold at which the membrane permeability changes rapidly between this 6.741 minutes and 7.098 minutes (band in FIG. 2).

OE21 cell line = experiment: Cell imaging of OE21 cells against CB7 negative control; format: cell-based; conditions: probe 5: 40 μM, 90 minutes at 37° C., CB7 10 μM control
Procedure: 40 μM of probe 5 was added to culture medium (RPMI 1640, 10% FBS, 15 mM HEPES, phenol red-free). After culturing for 90 minutes at 37° C., the cells were washed using a chilled medium and examined under a confocal microscope. A sample with a specific ALDH3A1 inhibitor (1-[(4-fluorophenyl)sulfonyl]-2-methyl-1H-benzimidazole, CB7, 10 μM) added served as a negative control. Excitation was provided by a 488 nm laser, and observation was carried out at wavelengths of […] in detection.

ALDH1A3 = target: T3, ALDH1A3; experiment: Reactivity of probes to recombinant ALDH1A3 (UPLC/MS/MS); format: biochemical; conditions: 10-100 nM ALDH, 10-80 μM compound, Tris buffer pH 7.5, 30 minutes at 37° C.; ◯/X not defined by a legend
Procedure: as §1, with “formate/water.” for “formate/water. An aldehyde-form and carboxylic acid-form probe were detected by the absorbance at a wavelength of 504 nm, and m/z of the MS spectrum at each peak was confirmed to agree with the expected m/z.”

A549 cells = test system: A549 cells
Text: An esophageal squamous cell carcinoma cell line (OE21 cell line) which are cells that express a high level of ALDH3A1 was used as the cells.

[6] = substrate: CCN(CCOCCNC(=O)c1ccc(-c2c3ccc(=O)cc-3oc3cc(O)ccc23)c(C)c1)c1ccc(C=O)cc1; experiment: Kinetic characteristics (Michaelis-Menten Km, Kcat) with ALDH1A1; format: biochemical, Human; conditions: other: five minutes at 37° C., Tris buffer pH 7.5
Procedure: as §1, §2

[7] = five minutes at 37° C., Tris buffer pH 7.5

| Molecule | Kcat ALDH1A1 (ALDH1A1 [1]) [s⁻¹] | Km (ALDH1A1 [1]) [µM] | Reactivity to ALDH1A1 (ALDH1A1 [2]) | Reactivity to ALDH1A1 (ALDH1A1 [2]; listed as compound 3) | Kcat ALDH3A1 (ALDH3A1 [3]; [7]) [s⁻¹] | Km (ALDH3A1 [3]; [7]) [µM] | Kcat ratio (Kcat of ALDH3A1/Kcat of ALDH1A1) (ALDH3A1 [3]; indicator of ALDH1A1/ALDH3A1 specificity) | Reactivity to ALDH3A1 (ALDH3A1 [4]) | Reactivity to ALDH3A1 (ALDH3A1 [4]; listed as compound 3) | Retention Time, Aldehyde form [5] [min] | Retention Time, carboxylate (carboxylic acid form) [5] [min] | Brightness of cells in imaging compared to negative control (CB7) (OE21 cell line) | Reactivity to ALDH1A1 (ALDH1A1 [2]; listed as compound 2) | Reactivity to ALDH1A3 (ALDH1A3) | Brightness of cells in imaging compared to negative control (A549 cells) | Km [6] [µM] | kcat [6] [s⁻¹] |
| --- | --- | --- | --- | --- | --- | --- | --- | --- | --- | --- | --- | --- | --- | --- | --- | --- | --- |
| 2-(N-ethyl-N-(4-formylphenyl)amino)ethyl-3-(1,3-dimethyl-4,4-difluoro-4-bora-3a,4a-diaza-s-indacen-5-yl)-propionamide [Probe 3] | 0.101 ± 0.00333 | 0.17 ± 0.03 | ◯ | reacted with ALDH1A1 and ALDH3A1 | 0.203 ± 0.0033 | 0.87 ± 0.07 | 2 | ◯ | reacted with ALDH1A1 and ALDH3A1 | 9.153 ± 0.010 | 7.920 ± 0.052 | no evident difference in brightness could be found in comparison to the negative control |  |  |  |  |  |
| N-(4-formylphenyl)-3-(1,3-dimethyl-4,4-difluoro-4-bora-3a,4a-diaza-s-indacen-5-yl)-propionamide [Probe 2] | 3.4 ± 0.415 | 5.76 ± 2.39 | ◯ |  |  |  |  | presented reactivity only with ALDH1A1 |  | 9.330 ± 0.002 | 7.284 ± 0.047 |  | presented reactivity only with ALDH1A1 | presented reactivity only with ALDH1A1 | no evident difference in brightness was found in comparison to the negative control |  |  |
| ALDH1A1 (Homo sapiens) (protein, purchased) MSSSGTPDLPVLLTDLKIQYTKIFINNEWHDSVSGKKFPVFNPATEEELCQVEEGDKEDVDKAVKAARQAFQIGSPWRTMDASERGRLLYKLADLIERDRLLLATMESMNGGKLYSNAYLNDLAGCIKTLRYCAGWADKIQGRTIPIDGNFFTYTRHEPIGVCGQIIPWNFPLVMLIWKIGPALSCGNTVVVKPAEQTPLTALHVASLIKEAGFPPGVVNIVPGYGPTAGAAISSHMDIDKVAFTGSTEVGKLIKEAAGKSNLKRVTLELGGKSPCIVLADADLDNAVEFAHHGVFYHQGQCCIAASRIFVEESIYDEFVRRSVERAKKYILGNPLTPGVTQGPQIDKEQYDKILDLIESGKKEGAKLECGGGPWGNKGYFVQPTVFSNVTDEMRIAKEEIFGPVQQIMKFKSLDDVIKRANNTFYGLSAGVFTKDIDKAITISSALQAGTVWVNCYGVVSAQCPFGGFKMSGNGRELGEYGFHEYTEVKTVTVKISQKNS |  |  |  |  |  |  |  |  |  |  |  |  |  |  |  | 0.26 ± 0.05 | 0.017 ± 0.00067 |
